{"source": "patent US20130184316A1", "about": "“METHODS FOR DIAGNOSING AND TREATING CONCUSSIVE DISORDERS” (priority 2010, published 2013)", "key": {"[1]": {"tested_on": "subject with PCS", "assay": "Subjective symptom assessment, Rivermead Post-Concussion Questionnaire", "assay_type": "in vivo, human", "method": "A single subject, prospective, double blind, placebo controlled trial of 4AP was then conducted in this individual. IRB approvals were obtained from all participating institutions and Subject gave written informed consent for all parts of the study. After a 4-week medication washout period, the Subject was randomly assigned a week's course of placebo, followed by a weeklong medication washout period, followed by another week on 4-AP (10 mg twice daily). Based on the medication half-life, a one week washout period was presumed to be sufficient. Subject and assessors were blinded to treatment allocation.\nMeasurements conducted at identical times at baseline and on each of the subsequent 3 weeks of the study included: • Balance and mobility assessed by Hi-Mat test (Arch. Phys. Med. Rehabil. 2006, 87(3), 437-442; hereby incorporated by reference in its entirety). • Subjective symptom assessment using the Rivermead Post-Concussion Questionnaire (Clin. Rehabil. 2005, 19(8), 878-887; hereby incorporated by reference in its entirety). • Neuropsychological assessment, consisting of the digit span and cancellation tests from the Wechsler Adult Intelligence Scale, 4th edition (Coalson, D. L., Engi-Raiford, S. Wechsler Adult Intelligence Scale, 4th Ed., in Technical and Interpretive Manual, 4th Ed., San Antonio: Pearson (2008); hereby incorporated by reference in its entirety), the California Verbal Learning Test II (CVLT) (Delis, D. C., Kramer, J. H., Kaplan, E., Ober, B. A. in CVLT-II Manual, San Antonio: The Psychological Corporation (2000); hereby incorporated by reference in its entirety), the Verbal Fluency Test (Connors Continuous Performance Test Computer II Program Version 5 Users Manual, Toronto: Multi-Health Systems, Inc. (2002); hereby incorporated by reference in its entirety), and the Connors Continuous Performance Test (J. Nervous Ment. Dis. 1985, 173(6), 353-357; hereby incorporated by reference in its entirety). • Videonystagmography (VNG) and rotary chair (RC) vestibular testing […]"}, "[2]": {"tested_on": "subject with PCS", "assay": "Empiric clinical trial of 4AP, reported symptoms and side effects", "assay_type": "in vivo, human", "text": "The study Subject had persisting stress-induced episodes of weakness and dysequilibrium, along with DBN. A crude phenomenological similarity of these symptoms to EA2 was noted. DNA sequencing of Subject's CACNA1A gene was done; no abnormality was found. Given intractable, persisting, and incapacitating nature of Subject's symptoms and the absence of any therapeutic alternatives, an empiric clinical trial of 4AP was agreed upon. Given subject's history of nephrolithiasis, it was felt that 4AP would be less likely to cause significant adverse reactions than acetazolamide. Subject provided written informed consent.\nThe Subject was treated by oral administration of 4-AP, starting with a minimal dose of 5 mg. […] Treatment continued for about six months, at which point a wash-out period was initiated.\nSide effects (initial blurring of vision, insomnia, and dyspepsia) were mild. Given these clinical results, a prospective, double blind case study was performed."}}, "data": [{"molecule": "Nc1ccncc1", "note": "[4-AP, 4-Amino pyridine]", "values": [{"measurement": "Rivermead score", "setting": "[1]; session 4 Active: blinded, one week on 4-AP 10 mg twice daily, baseline 43, placebo 24, washout 44", "result": 41}, {"measurement": "Rivermead score", "setting": "[1]; session 5 1st Open: open-label 4AP 10 mg twice daily, 5 weeks after formal study", "result": 21}, {"measurement": "Rivermead score", "setting": "[1]; session 6 2nd Open: open-label 4AP 10 mg twice daily, 9 weeks after formal study", "result": 7}, {"measurement": "Side effects (initial blurring of vision, insomnia, and dyspepsia)", "setting": "[2]; 10 mg twice daily", "result": "mild"}, {"measurement": "Symptoms reported by the Subject", "setting": "[2]; 10 mg twice daily", "result": "significant reduction in all symptoms"}, {"measurement": "Symptoms reported by the Subject", "setting": "[2]; oral, doses increased to 30 mg per day, lasted for the duration of treatment (about six months)", "result": "dramatic improvement in symptoms"}, {"measurement": "Adverse effects observed or reported within 3 hours of administration", "setting": "[2]; oral, minimal starting dose of 5 mg", "result": "No visible adverse effects"}, {"measurement": "Symptom intensity after termination of 4-AP treatment", "setting": "[2]; wash-out after about six months of treatment", "result": "rapid relapse of symptom intensity"}]}]}
